Entries after “also recorded” stand apart in the source; their conditions may differ. Ends that are not written are not given here.
What was measured:
S. mutans = assay: MIC test (broth microdilution) / antimicrobial activity, S. mutans; format: cell-based, Streptococcus mutans
Experimental: (§1) The active AMPs, STAMPs and the like can be identified and/or validated using an in vitro screening assay.
(§2) It will be appreciated that other assays as are well known in the art or that will become apparent to those having skill in the art upon review of this disclosure may also be used to identify active AMPs. Such assays include, for example, the assay described in Lehrer et al. (1988) J. Immunol.
(§3) Peptides were evaluated for basic antimicrobial activity by broth microdilution, as described previously (Eckert et al. (2006) Antimicrob Agents Chemother., 50: 3651-3657; Eckert et al. (2006) Antimicrob Agents Chemother., 50: 1480-1488). Briefly, ˜1×10^5 cfu/mL bacteria were diluted in TH (S. mutans), or Mueller-Hinton (MH) broth (all other organisms) and distributed to 96-well plates. Serially-diluted (2-fold) peptides were then added and the plates incubated at 37° C. for 18-24 h. […] All experiments were conducted 10 times.

MRSA = assay: MIC test / antimicrobial activity, MRSA; format: cell-based, Methicillin-resistant Staphylococcus aureus
Experimental: as §1, §2, §3

microorganisms [1] = assay: Targeting peptide binding to target microorganisms (Tables 3, 10, 12); settings: microorganism(s) the targeting peptide binds; binding in aqueous buffers varied with peptide solubility, preferably 1x PBS
microorganisms [2] = assay: Morphology, biofilm and growth disrupting peptides (Table 5); format: cell-based; set-up: key: A: Peptide aggregates; B: Less hyphal formation; Clumps; Diffuse clumps and small polyps; F: Diffuse growth; H: Thin; I: Growth inhibition; Microcolony formation; Rippled; Small polyps; Thick; W: Halo formation on top, microlonies on bottom
From the text: In certain embodiments peptides that induce alterations in phenotype or other biological activities can also be used as antimicrobial effector moieties.

microorganisms [3] = assay: Peptide activities: targeting/binding, antimicrobial, growth or phenotype altering (Tables 7, 8); format: cell-based; settings: peptides having multiple activities
S. pneumoniae = assay: MIC test / antimicrobial activity, S. pneumoniae; format: cell-based, Streptococcus pneumoniae
Experimental: as §1, §2, §3

A. niger = assay: MIC test / antimicrobial activity, A. niger; format: cell-based, Aspergillus niger
Experimental: as §1, §2, §3

B. subtilis = assay: MIC test / antimicrobial activity, B. subtilis; format: cell-based, Bacillus subtilis; settings: B. subtilis
Experimental: as §1, §2, §3

T. rubrum = assay: MIC test / antimicrobial activity, T. rubrum; format: cell-based, Trichophyton rubrum
Experimental: as §1, §2, §3

NYRLVNAIFSKIFKKKFIKF [K-7]
Organism MIC (μM) (S. mutans): S. mutans, 12.5 μM

LRKNLRWLF [K-15]
Organism MIC (μM) (S. mutans): S. mutans, 4 μM

GILKKLFTKVF [K-13]
Organism MIC (μM) (S. mutans): S. mutans, 16 μM

NYAVVSHT [PF-209]
Organism MIC (μM) (MRSA): MRSA, 50 μM
Target(s) (microorganisms [1]): C. albicans; also recorded: C. jeikeium; also recorded: C. jejuni
Organism, effect: MRSA (microorganisms [2]; MRSA): MRSA (I)
Organism, effect: P. aeruginosa (microorganisms [2]): P. aeruginosa (H)
Organism, effect: S. epidermidis (microorganisms [2]; S. epidermidis): S. epidermidis (C)
Activities (microorganisms [3]): G B M

KFSDQIDKGQDALKDKLGDL [PF-525]
Organism MIC (μM) (S. pneumoniae): S. pneumoniae, 50 μM
Organism MIC (μM) (A. niger): A. niger, 50 μM
Organism, effect (microorganisms [2]; S. pneumoniae): S. pneumoniae (H)
Activities (microorganisms [3]): G M

LGLTAGVAYAAQPTNQPTNQPTNQPTNQPTNQPTNQPRW-NH2 [PF-520]
Organism MIC (μM) (S. pneumoniae): S. pneumoniae, 50 μM
Organism, effect (microorganisms [2]; S. pneumoniae): S. pneumoniae (M)
Activities (microorganisms [3]): G B M

LSEMERRRLRKRA-NH2 [PF-529]
Organism MIC (μM) (S. pneumoniae): S. pneumoniae, 50 μM
Organism MIC (μM) (A. niger): A. niger, 50 μM
Target(s) (microorganisms [1]): S. epidermidis and E. coli and C. albicans and MRSA and S. pneumoniae and E. faecalis and C. jeikeium
Organism, effect (microorganisms [2]; S. pneumoniae): S. pneumoniae (H)
Activities (microorganisms [3]): G B M

FLKFLKKFFKKLKY [K-20]
Organism MIC (μM) (S. mutans): S. mutans, 8 μM

LRKFLHKLF [K-14]
Organism MIC (μM) (S. mutans): S. mutans, 8 μM

GLGRVIGRLIKQIIWRR [K-1]
Organism MIC (μM) (S. mutans): S. mutans, 25 μM

SFMPEIQKNTIPTQMK [PF-512]
Organism MIC (μM) (S. pneumoniae): S. pneumoniae, 50 μM
Target(s) (microorganisms [1]): S. pneumoniae; also recorded: C. jeikeium
Organism, effect (microorganisms [2]; S. pneumoniae): S. pneumoniae (H)
Activities (microorganisms [3]): G B M

WSRVPGHSDTGWKVWHRW-NH2 [PF-547]
Target(s) (microorganisms [1]): S. epidermidis and E. coli and P. aeruginosa and C. albicans and MRSA and S. pneumoniae and E. faecalis
Organism, effect (microorganisms [2]; B. subtilis): B. subtilis (I)
Organism, effect (microorganisms [2]; E. faecalis): E. faecalis (R)
Organism, effect (microorganisms [2]; MRSA): MRSA (M)
Organism, effect (microorganisms [2]; S. epidermidis): S. epidermidis (R)
Organism MIC (μM) (S. mutans): S. mutans, 12.5 μM
Organism MIC (μM) (B. subtilis): B. subtilis, 25 μM
Activities (microorganisms [3]): G B M
Organism MIC (μM) (T. rubrum): T. rubrum, 25 μM

FIRKFLKKWLL [K-9]
Organism MIC (μM) (S. mutans): S. mutans, 4 μM

FTRKFLKFLHL [K-17]
Organism MIC (μM) (S. mutans): S. mutans, 8 μM

RRGCTERLRRMARRNAWDLYAEHFY [PF-148]
Organism MIC (μM) (A. niger): A. niger, 50 μM
Organism, effect: B. subtilis (microorganisms [2]; B. subtilis): B. subtilis (I)
Organism, effect: C. albicans (microorganisms [2]; C. albicans): C. albicans (B)
Organism, effect: C. jeikeium (microorganisms [2]; C. jeikeium): C. jeikeium (H)
Organism, effect: C. jejuni (microorganisms [2]; C. jejuni): C. jejuni (H)
Organism, effect: M. luteus (microorganisms [2]; M. luteus): M. luteus (A)
Organism, effect: MRSA (microorganisms [2]; MRSA): MRSA (C)
Organism, effect: S. epidermidis (microorganisms [2]; S. epidermidis): S. epidermidis (D)
Organism, effect: S. pneumoniae (microorganisms [2]; S. pneumoniae): S. pneumoniae (R)
Organism MIC (μM) (B. subtilis): B. subtilis, 50 μM
Activities (microorganisms [3]): G B M

GWLKMFKKIIGKFGKF [K-21]
Organism MIC (μM) (S. mutans): S. mutans, 8 μM

RESKLIAMADMIRRRI-NH2 [PF-545]
Organism MIC (μM) (MRSA): MRSA, 50 μM
Organism MIC (μM) (A. niger): A. niger, 50 μM
Target(s) (microorganisms [1]): S. epidermidis; also recorded: E. coli; also recorded: P. aeruginosa; also recorded: S. pneumoniae; also recorded: E. faecalis; also recorded: C. jeikeium
Organism, effect (microorganisms [2]; B. subtilis): B. subtilis (I)
Organism, effect (microorganisms [2]; C. albicans): C. albicans (B)
Organism, effect (microorganisms [2]; C. jeikeium): C. jeikeium (H)
Organism, effect (microorganisms [2]; E. faecalis): E. faecalis (H)
Organism MIC (μM) (B. subtilis): B. subtilis, 25 μM
Activities (microorganisms [3]): G B M

ASKQASKQASKQASKQASKQASRSLKNHLL [PF-523]
Organism MIC (μM) (S. pneumoniae): S. pneumoniae, 50 μM
Target(s) (microorganisms [1]): S. epidermidis; also recorded: M. luteus; also recorded: C. albicans; also recorded: S. pneumoniae; also recorded: C. jeikeium; also recorded: C. jejuni
Activities (microorganisms [3]): B M

KLFKFLRKHLL [K-10]
Organism MIC (μM) (S. mutans): S. mutans, 4 μM

LVLRICTDLFTFIKWTIKQRKS [PF-497]
Target(s) (microorganisms [1]): S. mutans; also recorded: B. subtilis; also recorded: E. coli
Organism MIC (μM) (B. subtilis): B. subtilis, 50 μM
Activities (microorganisms [3]): B M

GIFKKFVKILYKVQKL [K-22]
Organism MIC (μM) (S. mutans): S. mutans, 8 μM

CGKLLEQKNFFLKTR [PF-521]
Organism MIC (μM) (S. pneumoniae): S. pneumoniae, 50 μM
Target(s) (microorganisms [1]): S. epidermidis; also recorded: E. coli; also recorded: P. aeruginosa; also recorded: S. pneumoniae; also recorded: E. faecalis
Organism, effect (microorganisms [2]; S. pneumoniae): S. pneumoniae (H)
Activities (microorganisms [3]): G B M

KILKKLFKFVF [K-12]
Organism MIC (μM) (S. mutans): S. mutans, 8 μM

KILKFLFKKVF [K-8]
Organism MIC (μM) (S. mutans): S. mutans, 4 μM

LLKLLKLKKLKF [K-19]
Organism MIC (μM) (S. mutans): S. mutans, 16 μM

FQKPFTGEEVEDFQDDDEIPTII [PF-437]
Organism MIC (μM) (S. pneumoniae): S. pneumoniae, 50 μM
Organism, effect (microorganisms [2]; S. pneumoniae): S. pneumoniae (I)
Activities (microorganisms [3]): G M

VLPFPAIPLSRRRACVAAPRPRSRQRAS [PF-168]
Organism MIC (μM) (MRSA): MRSA, 50 μM
Organism MIC (μM) (A. niger): A. niger, 50 μM
Target(s) (microorganisms [1]): S. epidermidis and M. luteus and E. coli and C. albicans and MRSA and C. jeikeium and C. jejuni
Organism, effect: MRSA (microorganisms [2]; MRSA): MRSA (I)
Organism, effect: P. aeruginosa (microorganisms [2]): P. aeruginosa (H)
Activities (microorganisms [3]): G B M
Organism MIC (μM) (T. rubrum): T. rubrum, 50 μM

SLQSQLGPCLHDQRH [PF-448]
Organism MIC (μM) (S. pneumoniae): S. pneumoniae, 50 μM
Organism MIC (μM) (A. niger): A. niger, 25 μM
Target(s) (microorganisms [1]): S. epidermidis; also recorded: M. luteus; also recorded: P. mirabilis; also recorded: E. coli; also recorded: S. pneumoniae; also recorded: E. faecalis; also recorded: C. jeikeium; also recorded: C. jejuni
Organism, effect (microorganisms [2]; S. pneumoniae): S. pneumoniae (I)
Activities (microorganisms [3]): G B M

VYRKRKSILKIYAKLKGWH [K-2]
Organism MIC (μM) (S. mutans): S. mutans, 12.5 μM

KKFKKFKVLKIL [K-18]
Organism MIC (μM) (S. mutans): S. mutans, 16 μM

VMQSLYVKPPLILVTKLAQQN [PF-511]
Organism MIC (μM) (S. pneumoniae): S. pneumoniae, 50 μM
Target(s) (microorganisms [1]): E. coli; also recorded: P. aeruginosa; also recorded: S. pneumoniae; also recorded: C. jeikeium
Organism, effect (microorganisms [2]; S. pneumoniae): S. pneumoniae (H)
Activities (microorganisms [3]): G B M

KILKFLFKQVF [K-11]
Organism MIC (μM) (S. mutans): S. mutans, 4 μM

GIVLIGLKLIPLLANVLR [PF-322]
Organism, effect: B. subtilis (microorganisms [2]; B. subtilis): B. subtilis (H)
Organism, effect: S. epidermidis (microorganisms [2]; S. epidermidis): S. epidermidis (C)
Organism MIC (μM) (B. subtilis): B. subtilis, 50 μM
Activities (microorganisms [3]): G M

PDAPRTCYHKPILAALSRIVVTDR [PF-524]
Organism MIC (μM) (S. pneumoniae): S. pneumoniae, 50 μM
Target(s) (microorganisms [1]): S. epidermidis and E. coli and P. aeruginosa and C. albicans and MRSA and S. pneumoniae and E. faecalis and C. jeikeium
Organism, effect (microorganisms [2]; E. coli): E. coli (M)
Organism, effect (microorganisms [2]; E. faecalis): E. faecalis (C)
Organism, effect (microorganisms [2]; MRSA): MRSA (C)
Organism, effect (microorganisms [2]; S. pneumoniae): S. pneumoniae (M)
Activities (microorganisms [3]): G B M

VYSFLYVLVIVRKLLSMKKRIERL [PF-499]
Target(s) (microorganisms [1]): S. mutans; also recorded: E. coli
Organism MIC (μM) (B. subtilis): B. subtilis, 50 μM
Activities (microorganisms [3]): B M

B1: PF-C180: peptide having multiple activities (peptide)
chain 1: TVEELDKAFTWGAAAALAIGVIAINVGLAAGYCYNNNDVF
chain 2: TVEELDKAFTWGAAAALAIGVIAINVGLAAGYCYNNNDVF
modifications: Peptide with targeting and/or antimicrobial activity
Target(s) (microorganisms [1]): F. nucleatum; also recorded: P. gingivalis; also recorded: S. mutans; also recorded: T. denticola
Organism, effect (microorganisms [2]; P. gingivalis): P. gingivalis (R)
Organism, effect (microorganisms [2]; S. mutans): S. mutans (S)
Activities (microorganisms [3]): G B

B2: PF-C181: peptide having multiple activities (peptide)
chain 1: KMRAGQVVFIYKLILVLLFYVLQKLFDLKKGCF
chain 2: KMRAGQVVFIYKLILVLLFYVLQKLFDLKKGCF
modifications: Peptide with targeting and/or antimicrobial activity
Target(s) (microorganisms [1]): P. gingivalis
Organism, effect (microorganisms [2]; F. nucleatum): F. nucleatum (T)
Activities (microorganisms [3]): G B

B3: PF-C120: peptide having multiple activities (peptide)
chain 1: ASLSTMTFKVMELKELIILLCGLTMLMIQTEFV
chain 2: ASLSTMTFKVMELKELIILLCGLTMLMIQTEFV
modifications: Peptide with targeting and/or antimicrobial activity
Target(s) (microorganisms [1]): A. naeslundii; also recorded: F. nucleatum; also recorded: P. gingivalis; also recorded: S. mutans; also recorded: T. denticola
Organism, effect (microorganisms [2]; F. nucleatum): F. nucleatum (T)
Activities (microorganisms [3]): G B

Reference: patent publication US20110039763A1, “TARGETED ANTIMICROBIAL MOIETIES” (C3 JIAN, INC., priority 2009, published 2011)
